Measurements: patent US20180071339A1, “COMBINATION OF PHARMACEUTICAL PREPARATIONS FOR TUMOR CHEMOTHERAPY” (HUBEI SOUNDNY BIOTECHNOLOGY CO., LTD., priority 2015, published 2018)
Counter-ions that a name gives are not always drawn.

Experiments:
[1] = test system: mouse bladder cancer cell line MB49; assay: mouse orthotopic bladder cancer model; format: in vivo, C57 mice; details: compared to mice firstly treated with cell vesicles then administered with Dox or HCPT; bladder infusion; bladders taken on day 12; FIGS. 7A and 7B
Procedure: Mouse bladder cancer cells are cultured with 10% of FBS 1640 basal medium until logarithm phase, and are resuspended with PBS into cell suspension with a cell concentration of 10^7/mL after being digested with trypsin. After C57 mice were anesthetized, 100 uL 0.1 mg/mL of polylysin solution are infused into mouse bladder using intravenous indwelling needle for pre-treatment for 20 min, and then 100 uL cell suspension are infused into the bladder after the polylysin solution is excreted, and cell suspension is excreted after holding for 1 h.
Preparing the cell vesicles with chemotherapy drugs wrapped therein: 100 uL chemotherapy drug (Dox or HCPT) are administered to 1 ml 1×10^7 mouse bladder cancer cells (1 mg/mL); 48 hours after administration of chemotherapy drugs, firstly centrifuging cell culture medium that contains apoptotic tumor cells at the rotational speed of 1300 rpm, 5000 rpm, respectively, each for 10 minutes and collecting a first supernatant; then centrifuging the first supernatant at the centrifugal force of 14000 g for 1 minute to remove cells and debris, and collecting a second supernatant; further centrifuging the second supernatant at the centrifugal force of 14000 g for 1 hour, then collecting precipitate to obtain cell vesicles with chemotherapy drugs wrapped therein. […]

[2] = test system: tumor repopulating cells MCF-7/TRC; assay: uptake of doxorubicin drugs by MCF-7/TRC, two-photon confocal microscope; format: cell-based, human; details: 1 μg/ml doxorubicin hydrochloride for 4 hours, test group first incubated with cell vesicles for 12 hours, FIG. 3
Description: (§1) Cell vesicles derived from human breast cancer cell line MCF-7 are obtained in accordance with the method in Example 2;
5000 MCF-7 human breast cancer cells are planted in the three-dimensional fibrous protein gel, and after 5 days culturing, a stem cell-like colony is formed, these cells are referred to as tumor repopulating cells, that is, MCF-7/TRC.
(§2) 1×10^5 human breast cancer cells MCF-7, tumor repopulating cells MCF-7/TRC, human breast cancer doxorubicin hydrochloride drug resistant cells ADR/MCF-7 were planted in the confocal dish, respectively. Cell vesicles that prepared above and derived from human breast cancer cell lines MCF-7 are added to the dish containing the above three kinds of cells respectively, with amount of 5×10^5/dish, and incubated for 12 hours, used as a test group;
(§3) Human breast cancer cells MCF-7, tumor repopulating cells MCF-7/TRC, and human breast cancer doxorubicin hydrochloride drug resistant strains ADR/MCF-7 without addition of cell vesicles are used as a control group. […]

[3] = test system: human breast cancer doxorubicin hydrochloride drug resistant strains ADR/MCF-7; assay: uptake of doxorubicin drugs by ADR/MCF-7, two-photon confocal microscope; format: cell-based; details: 1 μg/ml doxorubicin hydrochloride for 4 hours, test group first incubated with cell vesicles for 12 hours, FIG. 3
Procedure: as §1, §2, §3

[4] = test system: human breast cancer cells MCF-7; assay: excretion of doxorubicin drugs from MCF-7 cells, two-photon confocal microscope; format: cell-based; details: 1 μg/ml doxorubicin for 4 hours; test group first incubated with 5×10^5 cell vesicles for 12 hours; FIG. 2
Procedure: Human breast cancer cell line MCF-7 is cultured in RPMI Medium 1640, so that the cell amount reaches 2×10^7/ml; human breast cancer cell line MCF-7 is exposed to UV radiation for 60 minutes; 18 hours after UV radiation, human breast cancer cell line MCF-7 starts apoptosis, which is observed under microscope; collecting cell vesicles from the above apoptotic tumor cells by centrifugation or filtration procedure, as described in Example 1;
1×10^5 normally cultured human breast cancer cells MCF-7 are planted in a confocal dish, and then 5×10^5 cell vesicles prepared above and derived from human breast cancer cell line MCF-7 are added into the confocal dish and incubated with MCF-7 for 12 hours, and used as a test group (i.e., MCF-7 cells+MPs); 1×10^5 human breast cancer cells MCF-7 without adding the cells vesicles are used as a control group (i.e., MCF-7 cells).
The test group and the control group are washed once with PBS respectively, and then a medium containing 1 μg/ml of doxorubicin drugs is added, 4 hours later, two groups are stabilized with 4% of paraformaldehyde for 20 minutes, the excretion of doxorubicin drugs from the human breast cancer cell MCF-7 in test group and control group is observed under the Two-photon confocal microscope.

[5] = test system: human breast cancer cells MCF-7; assay: uptake of doxorubicin drugs by MCF-7, two-photon confocal microscope; format: cell-based; details: 1 μg/ml doxorubicin hydrochloride for 4 hours, test group first incubated with cell vesicles for 12 hours, FIG. 3
Procedure: as §1, §2, §3

| SMILES | treatment effects [1] | drug content in nucleus [2] | drug content in nucleus [3] | doxorubicin drug quantity in nucleus [4] | excretion of doxorubicin drugs from MCF-7 cells [4] | doxorubicin drug content in the nucleus [5] |
| --- | --- | --- | --- | --- | --- | --- |
| CC[C@@]1(O)C(=O)OCc2c1cc1n(c2=O)Cc2cc3cc(O)ccc3nc2-1 [HCPT, hydroxycamptothecin] | weaker treatment effects | – | – | – | – | – |
| COc1cccc2c1C(=O)c1c(O)c3c(c(O)c1C2=O)C[C@@](O)(C(=O)CO)C[C@@H]3O[C@H]1C[C@H](N)[C@H](O)[C@H](C)O1 [doxorubicin, doxorubicin hydrochloride] | weaker treatment effects | less than that in control group MCF-7 | less than that in control group MCF-7 | drug quantity in nucleus is not high | excrete a great number of drugs outside of the cell membrane | not high |
